ChEMBL document CHEMBL4311997, “Discovery of a potent histone deacetylase (HDAC) 3/6 selective dual inhibitor” (Eur J Med Chem, 2019)
Active and inactive are the calls of the source. The calls are words filed in the database; no cut-off is given here.

What was measured:
[1] = target: Histone deacetylase 5 (Homo sapiens) (UniProt Q9UQL6); assay: Inhibition of human HDAC5 at 10 uM using Acetyl-Lys (trifluoroacetyl)-AMC) as substrate incubated for 2 hrs by fluorescence assay relative to control
[2] = target: Histone deacetylase 7 (Homo sapiens) (UniProt Q8WUI4); assay: Inhibition of human HDAC7 at 10 uM using Acetyl-Lys (trifluoroacetyl)-AMC) as substrate incubated for 2 hrs by fluorescence assay
[3] = target: Histone-lysine N-methyltransferase SETD7 (Homo sapiens) (UniProt Q8WTS6); assay: Inhibition of human SET7/9 at 100 uM using core histone as substrate incubated for 1 hr in presence of [3H]-SAM by filter binding method relative to control
[4] = target: Histone deacetylase 1/2/3 (Homo sapiens, UniProt Q13547+O15379+Q92769); assay: Inhibition of HDAC1/2/3 in human KMS-12-BM cells assessed as increase in Ac-H3 level incubated for 24 hrs by Western blot analysis; format: cell-based
[5] = Selectivity index, ratio of EC50 for human MDA-MB-231 cells to IC50 for ring stage Plasmodium falciparum K1; format: functional; parameters: reference not given here
[6] = Inhibition of human MLL1 complex using core histone as substrate incubated for 1 hr in presence of [3H]-SAM by filter binding method
[7] = species on record: Homo sapiens; assay: Selectivity ratio of IC50 for human HDAC8 to IC50 for human HDAC6
[8] = species on record: Homo sapiens; assay: Selectivity ratio of IC50 for human HDAC3 to IC50 for human HDAC6
[9] = species on record: Homo sapiens; assay: Selectivity ratio of IC50 for human HDAC5 to IC50 for human HDAC6
[10] = test system: MDA-MB-231; assay: Induction of apoptosis in human MDA-MB-231 cells assessed as late apoptotic cells at 3 uM incubated for 48 hrs by Annexin V-FITC/PI staining by flow cytometric analysis (reference value: 3%); format: functional
[11] = test system: OPM-2; assay: Antiproliferative activity against human OPM2 cells incubated for 48 hrs by CellTiter-Glo luminescent cell viability assay; format: functional, cell-based; conditions: OPM-2, 48 h
[12] = target: Histone deacetylase 2 (Homo sapiens, UniProt Q92769); assay: Inhibition of human HDAC2 using Arg-His-Lys-Lys (Ac) as substrate incubated for 2 hrs by fluorescence assay
[13] = target: Histone-lysine N-methyltransferase SUV39H2 (Homo sapiens) (UniProt Q9H5I1); assay: Inhibition of human SUV39H2 at 100 uM using histone H3 as substrate incubated for 1 hr in presence of [3H]-SAM by filter binding method relative to control
[14] = test system: MDA-MB-231; assay: Induction of apoptosis in human MDA-MB-231 cells assessed as viable cells at 9 uM incubated for 48 hrs by Annexin V-FITC/PI staining by flow cytometric analysis (reference value: 77%); format: functional; conditions: MDA-MB-231, 48 h, read-out: Activity
[15] = Selectivity index, ratio of EC50 for human MDA-MB-231 cells to IC50 for ring stage Plasmodium falciparum 3D7; format: functional; parameters: reference not given here
[16] = target: DNA (cytosine-5)-methyltransferase 3A (Homo sapiens, UniProt Q9Y6K1); assay: Inhibition of human DNMT3a using lambda DNA as substrate incubated for 1 hr in presence of [3H]-SAM by filter binding method
[17] = target: Histone deacetylase 8 (Homo sapiens, UniProt Q9BY41); assay: Inhibition of human HDAC8 using Arg-His-Lys (Ac)-Lys (Ac) as substrate incubated for 2 hrs by fluorescence assay
[18] = test system: MDA-MB-231; assay: Induction of apoptosis in human MDA-MB-231 cells assessed as early apoptotic cells at 3 uM incubated for 48 hrs by Annexin V-FITC/PI staining by flow cytometric analysis (reference value: 5%); format: functional
[19] = target: Histone deacetylase 1 (Homo sapiens, UniProt Q13547)
Description: Inhibition of human HDAC1 using Arg-His-Lys-Lys (Ac) as substrate incubated for 2 hrs by fluorescence assay

[20] = target: Histone deacetylase 11 (Homo sapiens, UniProt Q96DB2); assay: Inhibition of human HDAC11 using Acetyl-Lys (trifluoroacetyl)-AMC) as substrate incubated for 2 hrs by fluorescence assay
[21] = species on record: Homo sapiens; assay: Selectivity ratio of IC50 for inhibition of human HDAC1 to IC50 for inhibition of human HDAC3
[22] = target: Histone deacetylase 9 (Homo sapiens) (UniProt Q9UKV0); assay: Inhibition of human HDAC9 at 10 uM using Acetyl-Lys (trifluoroacetyl)-AMC) as substrate incubated for 2 hrs by fluorescence assay relative to control
[23] = Half life in male rat liver microsomes at 3 uM preincubated for 5 mins followed by NADPH addition and measured up to 45 mins by LC-MS/MS analysis; format: ADME, Microsome

Histone deacetylase 7 (Homo sapiens), sequence (Q8WUI4 whole entry): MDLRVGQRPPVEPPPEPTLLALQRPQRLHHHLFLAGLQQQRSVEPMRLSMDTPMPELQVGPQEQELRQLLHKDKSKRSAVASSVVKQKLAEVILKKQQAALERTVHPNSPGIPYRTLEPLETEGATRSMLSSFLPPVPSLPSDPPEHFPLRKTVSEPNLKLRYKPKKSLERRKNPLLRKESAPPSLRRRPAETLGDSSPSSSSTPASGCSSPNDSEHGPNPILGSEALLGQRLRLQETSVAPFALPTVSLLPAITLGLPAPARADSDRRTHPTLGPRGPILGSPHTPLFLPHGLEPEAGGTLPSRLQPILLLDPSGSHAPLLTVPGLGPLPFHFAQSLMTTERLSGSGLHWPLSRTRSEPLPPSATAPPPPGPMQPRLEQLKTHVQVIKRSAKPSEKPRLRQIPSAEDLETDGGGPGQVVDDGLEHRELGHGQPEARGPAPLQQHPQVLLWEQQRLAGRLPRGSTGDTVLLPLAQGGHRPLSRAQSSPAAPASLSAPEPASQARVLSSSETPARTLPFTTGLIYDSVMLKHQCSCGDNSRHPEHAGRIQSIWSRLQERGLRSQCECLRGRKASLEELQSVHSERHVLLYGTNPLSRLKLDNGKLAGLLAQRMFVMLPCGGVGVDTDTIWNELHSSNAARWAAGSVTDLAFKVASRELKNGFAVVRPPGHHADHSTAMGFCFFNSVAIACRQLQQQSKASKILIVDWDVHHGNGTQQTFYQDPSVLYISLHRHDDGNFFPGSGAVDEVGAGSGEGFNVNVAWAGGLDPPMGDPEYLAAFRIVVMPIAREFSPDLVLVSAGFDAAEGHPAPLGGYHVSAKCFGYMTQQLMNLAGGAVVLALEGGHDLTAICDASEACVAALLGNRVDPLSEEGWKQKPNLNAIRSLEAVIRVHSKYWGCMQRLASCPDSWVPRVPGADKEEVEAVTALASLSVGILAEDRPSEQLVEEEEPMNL
Histone deacetylase 8, sequence (Q9BY41 whole entry): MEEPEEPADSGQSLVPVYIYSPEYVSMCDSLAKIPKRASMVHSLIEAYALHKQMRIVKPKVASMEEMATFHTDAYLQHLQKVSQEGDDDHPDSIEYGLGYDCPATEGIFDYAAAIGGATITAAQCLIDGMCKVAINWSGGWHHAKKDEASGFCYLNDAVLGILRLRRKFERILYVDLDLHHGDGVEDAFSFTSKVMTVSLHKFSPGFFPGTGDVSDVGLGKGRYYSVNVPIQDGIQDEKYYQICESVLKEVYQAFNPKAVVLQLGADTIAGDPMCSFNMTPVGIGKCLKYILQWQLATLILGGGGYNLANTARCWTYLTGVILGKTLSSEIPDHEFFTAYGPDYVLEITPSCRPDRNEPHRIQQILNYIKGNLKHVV
Histone-lysine N-methyltransferase SUV39H2 (Homo sapiens), sequence (Q9H5I1 whole entry): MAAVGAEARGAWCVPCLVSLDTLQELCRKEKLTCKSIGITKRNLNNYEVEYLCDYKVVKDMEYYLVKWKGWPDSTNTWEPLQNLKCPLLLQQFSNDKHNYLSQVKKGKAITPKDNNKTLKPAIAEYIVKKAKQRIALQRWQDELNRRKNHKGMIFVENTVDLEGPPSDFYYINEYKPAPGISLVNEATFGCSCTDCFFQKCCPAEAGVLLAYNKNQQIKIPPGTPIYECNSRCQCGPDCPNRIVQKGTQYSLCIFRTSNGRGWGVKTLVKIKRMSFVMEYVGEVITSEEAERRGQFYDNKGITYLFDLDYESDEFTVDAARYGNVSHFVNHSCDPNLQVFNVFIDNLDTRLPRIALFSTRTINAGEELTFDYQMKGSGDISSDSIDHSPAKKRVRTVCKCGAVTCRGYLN
Histone deacetylase 9 (Homo sapiens), sequence (Q9UKV0 whole entry): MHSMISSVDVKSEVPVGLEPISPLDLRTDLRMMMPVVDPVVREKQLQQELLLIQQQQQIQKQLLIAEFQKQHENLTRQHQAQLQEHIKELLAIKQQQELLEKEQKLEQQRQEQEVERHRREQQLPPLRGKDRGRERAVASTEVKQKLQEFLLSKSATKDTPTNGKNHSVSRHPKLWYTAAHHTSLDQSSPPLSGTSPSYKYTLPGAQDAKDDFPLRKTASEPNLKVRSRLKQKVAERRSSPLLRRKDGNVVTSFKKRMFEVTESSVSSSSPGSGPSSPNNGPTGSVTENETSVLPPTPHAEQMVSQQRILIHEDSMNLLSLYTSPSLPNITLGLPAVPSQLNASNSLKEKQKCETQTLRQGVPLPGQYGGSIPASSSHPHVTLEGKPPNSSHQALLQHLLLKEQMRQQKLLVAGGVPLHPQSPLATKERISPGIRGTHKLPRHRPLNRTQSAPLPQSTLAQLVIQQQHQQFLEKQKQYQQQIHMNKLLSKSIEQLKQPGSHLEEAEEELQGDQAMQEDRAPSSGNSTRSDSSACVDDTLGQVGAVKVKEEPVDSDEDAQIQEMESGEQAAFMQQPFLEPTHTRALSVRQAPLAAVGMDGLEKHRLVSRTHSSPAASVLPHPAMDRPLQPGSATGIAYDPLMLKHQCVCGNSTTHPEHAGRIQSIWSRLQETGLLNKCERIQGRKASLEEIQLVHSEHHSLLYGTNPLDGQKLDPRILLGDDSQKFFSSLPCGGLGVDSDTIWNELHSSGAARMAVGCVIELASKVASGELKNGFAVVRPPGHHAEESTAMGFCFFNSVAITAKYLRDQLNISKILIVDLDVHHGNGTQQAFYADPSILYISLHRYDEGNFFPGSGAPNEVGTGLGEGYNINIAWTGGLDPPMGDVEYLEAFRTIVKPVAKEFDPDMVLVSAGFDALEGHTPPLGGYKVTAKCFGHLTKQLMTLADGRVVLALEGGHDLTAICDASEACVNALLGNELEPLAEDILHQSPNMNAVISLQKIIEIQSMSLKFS
Histone deacetylase 11, sequence (Q96DB2 whole entry): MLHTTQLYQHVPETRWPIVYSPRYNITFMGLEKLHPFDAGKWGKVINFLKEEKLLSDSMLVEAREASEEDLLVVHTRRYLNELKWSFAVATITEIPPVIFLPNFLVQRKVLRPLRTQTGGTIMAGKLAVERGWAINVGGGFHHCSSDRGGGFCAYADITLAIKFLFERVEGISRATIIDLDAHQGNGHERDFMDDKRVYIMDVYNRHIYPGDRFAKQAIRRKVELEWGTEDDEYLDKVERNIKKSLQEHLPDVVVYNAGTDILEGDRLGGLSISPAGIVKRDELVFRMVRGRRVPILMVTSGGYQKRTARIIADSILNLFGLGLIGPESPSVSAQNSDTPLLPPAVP
Histone-lysine N-methyltransferase SETD7 (Homo sapiens), sequence (Q8WTS6 whole entry): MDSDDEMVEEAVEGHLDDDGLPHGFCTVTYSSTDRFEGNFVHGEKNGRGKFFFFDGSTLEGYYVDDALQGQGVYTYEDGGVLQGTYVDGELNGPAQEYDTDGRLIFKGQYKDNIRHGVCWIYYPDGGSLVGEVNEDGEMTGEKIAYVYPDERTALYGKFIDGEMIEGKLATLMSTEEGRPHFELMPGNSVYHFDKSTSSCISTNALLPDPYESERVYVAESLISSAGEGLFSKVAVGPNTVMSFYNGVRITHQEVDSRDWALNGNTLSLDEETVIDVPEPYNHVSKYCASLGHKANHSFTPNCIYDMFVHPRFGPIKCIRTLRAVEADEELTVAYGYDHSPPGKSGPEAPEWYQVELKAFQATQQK
Histone deacetylase 5 (Homo sapiens), sequence (Q9UQL6 whole entry): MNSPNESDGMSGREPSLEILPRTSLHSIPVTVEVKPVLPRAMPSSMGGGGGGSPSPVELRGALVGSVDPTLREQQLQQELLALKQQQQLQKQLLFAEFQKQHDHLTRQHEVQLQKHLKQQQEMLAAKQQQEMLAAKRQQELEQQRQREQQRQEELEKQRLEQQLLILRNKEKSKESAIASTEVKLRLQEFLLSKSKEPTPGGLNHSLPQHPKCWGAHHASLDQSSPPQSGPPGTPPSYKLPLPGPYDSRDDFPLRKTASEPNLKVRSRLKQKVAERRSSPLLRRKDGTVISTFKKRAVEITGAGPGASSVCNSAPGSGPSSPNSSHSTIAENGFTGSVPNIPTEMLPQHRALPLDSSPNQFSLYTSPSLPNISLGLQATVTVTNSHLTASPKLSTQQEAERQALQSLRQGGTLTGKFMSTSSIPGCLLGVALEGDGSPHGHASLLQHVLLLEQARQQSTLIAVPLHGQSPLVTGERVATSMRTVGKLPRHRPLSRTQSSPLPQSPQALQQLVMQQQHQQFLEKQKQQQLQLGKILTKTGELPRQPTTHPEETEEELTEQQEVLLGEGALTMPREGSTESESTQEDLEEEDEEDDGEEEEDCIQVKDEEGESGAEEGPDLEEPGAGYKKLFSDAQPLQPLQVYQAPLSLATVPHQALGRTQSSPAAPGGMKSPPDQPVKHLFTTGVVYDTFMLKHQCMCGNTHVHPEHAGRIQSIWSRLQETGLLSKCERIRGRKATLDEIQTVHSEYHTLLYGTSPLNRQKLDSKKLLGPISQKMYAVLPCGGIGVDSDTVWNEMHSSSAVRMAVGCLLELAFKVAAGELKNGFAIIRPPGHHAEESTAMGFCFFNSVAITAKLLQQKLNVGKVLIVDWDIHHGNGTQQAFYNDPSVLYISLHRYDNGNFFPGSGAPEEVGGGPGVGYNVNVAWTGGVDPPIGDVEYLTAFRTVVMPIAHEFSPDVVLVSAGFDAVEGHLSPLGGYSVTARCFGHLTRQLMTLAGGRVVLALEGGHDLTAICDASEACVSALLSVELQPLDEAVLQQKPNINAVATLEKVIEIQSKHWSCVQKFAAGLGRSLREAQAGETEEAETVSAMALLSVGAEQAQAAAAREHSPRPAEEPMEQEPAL

inhibition [1]: 25%
inhibition [2]: inactive
inhibition [3]: 19%
EC50 [4]: 7500 nM
inhibition [4]: Dose-dependent effect
EC50 [6]: 158000 nM
Ratio IC50 [7]: 485
Ratio IC50 [8]: 13
Ratio IC50 [9]: > 3000
IC50 [12]: 1130 nM
inhibition [13]: inactive
IC50 [16]: 74000 nM
IC50 [17]: 1260 nM
IC50 [19]: 896 nM
IC50 [20]: 1810 nM
Ratio IC50 [21]: 26 to 33
inhibition [22]: 21%
half-life at 3 µM [23]: 2.38 h
SMILES: COc1ccc(CN2CCC(Nc3nc(Nc4ccc(NC(=O)CCCCCCC(=O)NO)cc4)nc4cc(OC)c(OC)cc34)CC2)cc1
Selectivity Index [5]: 12
Activity [10]: 15%
EC50 [11]: 7900 nM
viability at 9 µM [14]: 57%
Selectivity Index [15]: 43
Activity [18]: 23%
